Assay results from PubChem BioAssay AID248 (DTP/NCI, 2004).
Where “and” joins values, the source holds several entries; their conditions need not be identical. Identical values can stand only once. Toxic doses and inconclusive results are not listed. Cut-off read from the data, not from the text of the source: active = T/C of 150% or more; inactive = T/C below 125%.

Tested on: L1210 leukemia ip in BDF1 mice, survival T/C
Assay: NCI In Vivo Anticancer Drug Screen. Data for tumor model L1210 Leukemia (intraperitoneal) in B6D2F1 (BDF1) mice
Conditions: endpoint: mean survival time, higher = longer survival
Outline: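 Tumor was transplanted into mice, which were then dosed with test compound or vehicle alone. Survival was recorded for each group, and the treated figure was expressed relative to the control figure.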

[1] = dose: 100.0 mg/kg/injection, schedule: Q01DX009 (ip), vehicle: saline
[2] = dose: 200.0 mg/kg/injection, schedule: Q01DX009 (ip), vehicle: saline
[3] = dose: 100.0 mg/kg/injection, schedule: Q04DX003 (ip), vehicle: saline
[4] = dose: 200.0 mg/kg/injection, schedule: Q04DX003 (ip), vehicle: saline
[5] = dose: 400.0 mg/kg/injection, schedule: Q01DX009 (ip), vehicle: saline
[6] = dose: 400.0 mg/kg/injection, schedule: Q04DX003 (ip), vehicle: saline
[7] = dose: 50.0 mg/kg/injection, schedule: Q01DX009 (ip), vehicle: Klucel (hydroxypropylcellulose) (HPC)
[8] = dose: 100.0 mg/kg/injection, schedule: Q01DX009 (ip), vehicle: Klucel (hydroxypropylcellulose) (HPC)
[9] = dose: 100.0 mg/kg/injection, schedule: Q01DX001 (ip), vehicle: other
[10] = dose: 200.0 mg/kg/injection, schedule: Q01DX001 (ip), vehicle: other
[11] = dose: 400.0 mg/kg/injection, schedule: Q01DX001 (ip), vehicle: other
[12] = dose: 100.0 mg/kg/injection, schedule: Q04DX003 (ip), vehicle: saline with Tween-80
[13] = dose: 100.0 mg/kg/injection, schedule: Q01DX001 (ip), vehicle: saline
[14] = dose: 200.0 mg/kg/injection, schedule: Q01DX001 (ip), vehicle: saline
[15] = dose: 400.0 mg/kg/injection, schedule: Q01DX001 (ip), vehicle: saline
[16] = dose: 200.0 mg/kg/injection, schedule: Q01DX009 (ip), vehicle: Klucel (hydroxypropylcellulose) (HPC)
[17] = dose: 400.0 mg/kg/injection, schedule: Q01DX009 (ip), vehicle: Klucel (hydroxypropylcellulose) (HPC)
[18] = dose: 50.0 mg/kg/injection, schedule: Q01DX009 (ip), vehicle: saline

Measured: T/C

O=[N+]([O-])c1cc(C(F)(F)F)ccc1Cl
inactive: [1] 102 % of control | [2] 97 % of control

O=[N+]([O-])c1ccc(Nc2ccncc2)cc1
inactive: [1] 103 % of control | [3] 106 % of control | [2] 106 % of control | [4] 103 % of control | [5] 104 % of control | [6] 114 % of control

N#CC1(C(=O)c2ccccc2)C=Cc2ccccc2N1C(=O)c1ccccc1 (stereo not drawn)
inactive: dose: 100.0 mg/kg/injection, schedule: Q01DX001 (ip), vehicle: steriod suspending solution 87 % of control | dose: 200.0 mg/kg/injection, schedule: Q01DX001 (ip), vehicle: steriod suspending solution 90 % of control | dose: 400.0 mg/kg/injection, schedule: Q01DX001 (ip), vehicle: steriod suspending solution 92 % of control

Cc1ccc(/C=N/NC(=O)c2ccncc2)cc1
inactive: dose: 25.0 mg/kg/injection, schedule: Q01DX009 (ip), vehicle: Klucel (hydroxypropylcellulose) (HPC) 94 % of control | [7] 96 % of control | [8] 94 % of control and 96 % of control

CCSc1nc(/C=N/NS(=O)(=O)c2ccccc2)c(F)c(=O)[nH]1
inactive: [9] 105 % of control | [10] 101 % of control | [11] 96 % of control

COC(=O)C1=C(C(=O)OC)C2OC1C(COC(C)=O)=C2COC(C)=O
inactive: [3] 93 % of control

CC(C)(C)OC(=O)c1cc([N+](=O)[O-])cc([N+](=O)[O-])c1
inactive: dose: 100.0 mg/kg/injection, schedule: Q04DX002 (ip), vehicle: Klucel (hydroxypropylcellulose) (HPC) 104 % of control | dose: 200.0 mg/kg/injection, schedule: Q04DX002 (ip), vehicle: Klucel (hydroxypropylcellulose) (HPC) 104 % of control | dose: 400.0 mg/kg/injection, schedule: Q04DX002 (ip), vehicle: Klucel (hydroxypropylcellulose) (HPC) 107 % of control

CN(C)C=Nc1ncnc2[nH]ncc12
inactive: [12] 107 % of control | dose: 150.0 mg/kg/injection, schedule: Q04DX003 (ip), vehicle: saline with Tween-80 107 % of control | dose: 200.0 mg/kg/injection, schedule: Q04DX003 (ip), vehicle: saline with Tween-80 123 % of control | dose: 250.0 mg/kg/injection, schedule: Q04DX003 (ip), vehicle: saline with Tween-80 123 % of control

[N-]=[N+]=Nc1ccc(S(=O)(=O)Nc2ncccn2)cc1
inactive: dose: 100.0 mg/kg/injection, schedule: Q01DX001 (ip), vehicle: carboxymethylcellulose (CMC) 113 % of control | dose: 100.0 mg/kg/injection, schedule: Q01DX009 (ip), vehicle: carboxymethylcellulose (CMC) 93 % of control | dose: 100.0 mg/kg/injection, schedule: Q04DX002 (ip), vehicle: carboxymethylcellulose (CMC) 100 % of control and 108 % of control | dose: 100.0 mg/kg/injection, schedule: Q04DX003 (ip), vehicle: carboxymethylcellulose (CMC) 104 % of control | dose: 200.0 mg/kg/injection, schedule: Q01DX001 (ip), vehicle: carboxymethylcellulose (CMC) 108 % of control | dose: 200.0 mg/kg/injection, schedule: Q01DX009 (ip), vehicle: carboxymethylcellulose (CMC) 88 % of control | dose: 200.0 mg/kg/injection, schedule: Q04DX002 (ip), vehicle: carboxymethylcellulose (CMC) 102 % of control and 103 % of control | dose: 200.0 mg/kg/injection, schedule: Q04DX003 (ip), vehicle: carboxymethylcellulose (CMC) 96 % of control | dose: 400.0 mg/kg/injection, schedule: Q01DX001 (ip), vehicle: carboxymethylcellulose (CMC) 90 % of control | dose: 400.0 mg/kg/injection, schedule: Q01DX009 (ip), vehicle: carboxymethylcellulose (CMC) 98 % of control | dose: 400.0 mg/kg/injection, schedule: Q04DX002 (ip), vehicle: carboxymethylcellulose (CMC) 103 % of control and 107 % of control | dose: 400.0 mg/kg/injection, schedule: Q04DX003 (ip), vehicle: carboxymethylcellulose (CMC) 110 % of control

C[N+](C)(C)CCC[N+]1(C)CC2CC=CCC2C1 (stereo not drawn)
inactive: dose: 100.0 mg/kg/injection, schedule: Q01DX Z (ip), vehicle: saline 97 % of control | dose: 145.0 mg/kg/injection, schedule: Q01DX Z (ip), vehicle: saline 97 % of control | dose: 220.0 mg/kg/injection, schedule: Q01DX Z (ip), vehicle: saline 87 % of control

O=c1[nH][nH]c(=O)c2c([N+](=O)[O-])cccc12
inactive: [9] 90 % of control | [10] 92 % of control | [11] 87 % of control

Cn1ccc[n+]1C
inactive: [13] 93 % of control | [14] 101 % of control | [15] 92 % of control

CCCCCCCCC(CO)(CCCCCCC)C(=O)O (stereo not drawn)
inactive: dose: 100.0 mg/kg/injection, schedule: Q04DX002 (ip), vehicle: saline with Tween-80 88 % of control | dose: 200.0 mg/kg/injection, schedule: Q04DX002 (ip), vehicle: saline with Tween-80 88 % of control

O=[N+]([O-])c1ccc(Oc2ccc[n+]([O-])c2)c([N+](=O)[O-])c1
inactive: [7] 102 % of control | [8] 102 % of control | [12] 96 % of control

c1ccc([B-](c2ccccc2)(c2ccccc2)[C+]2CCCCC2)cc1 (tested in a mixture with another compound)
inactive: [13] 105 % of control | [14] 108 % of control | [15] 108 % of control

COc1ccc(C2(c3ccccc3)OC(=O)c3ccccc32)c2ccccc12 (stereo not drawn)
inactive: [9] 110 % of control | dose: 100.0 mg/kg/injection, schedule: Q04DX003 (ip), vehicle: other 104 % of control | [10] 92 % of control | dose: 200.0 mg/kg/injection, schedule: Q04DX003 (ip), vehicle: other 100 % of control | [11] 86 % of control | dose: 400.0 mg/kg/injection, schedule: Q04DX003 (ip), vehicle: other 111 % of control

O=C(c1ccc(Br)cc1)C(O)O
inactive: [1] 102 % of control | [3] 121 % of control | [2] 97 % of control | [4] 101 % of control | [5] 102 % of control | [6] 106 % of control

O=c1[nH]cc(CCc2ccccc2)c(=O)[nH]1
inactive: [8] 105 % of control | dose: 100.0 mg/kg/injection, schedule: Q04DX003 (ip), vehicle: Klucel (hydroxypropylcellulose) (HPC) 94 % of control | [16] 96 % of control | dose: 200.0 mg/kg/injection, schedule: Q04DX003 (ip), vehicle: Klucel (hydroxypropylcellulose) (HPC) 94 % of control | [17] 98 % of control | dose: 400.0 mg/kg/injection, schedule: Q04DX003 (ip), vehicle: Klucel (hydroxypropylcellulose) (HPC) 93 % of control

N=C(N)CNC(=O)c1ccccc1C(=O)O
inactive: dose: 19.0 mg/kg/injection, schedule: Q01DX009 (ip), vehicle: saline 100 % of control | dose: 38.0 mg/kg/injection, schedule: Q01DX009 (ip), vehicle: saline 92 % of control | dose: 75.0 mg/kg/injection, schedule: Q01DX001 (ip), vehicle: saline 103 % of control | dose: 75.0 mg/kg/injection, schedule: Q01DX009 (ip), vehicle: saline 96 % of control | dose: 150.0 mg/kg/injection, schedule: Q01DX001 (ip), vehicle: saline 107 % of control | dose: 150.0 mg/kg/injection, schedule: Q01DX009 (ip), vehicle: saline 100 % of control | dose: 300.0 mg/kg/injection, schedule: Q01DX001 (ip), vehicle: saline 92 % of control

COc1c(NC(=O)c2cccc(C(=O)Nc3cccc([N+](=O)[O-])c3OC)c2)cccc1[N+](=O)[O-]
inactive: [8] 96 % of control | [16] 89 % of control | [17] 92 % of control

Cc1cc(=O)[nH]c2c1CCC2
inactive: [18] 92 % of control | [1] 95 % of control | [3] 106 % of control | [4] 108 % of control

NC(=S)N/N=C\c1ncnc2ccccc12
inactive: dose: 2.1 mg/kg/injection, schedule: Q03HX032 (ip), vehicle: saline with Tween-80 101 % of control | dose: 3.2 mg/kg/injection, schedule: Q03HX032 (ip), vehicle: saline with Tween-80 107 % of control | dose: 4.8 mg/kg/injection, schedule: Q03HX032 (ip), vehicle: saline with Tween-80 118 % of control | dose: 6.25 mg/kg/injection, schedule: Q01DX009 (ip), vehicle: saline 115 % of control | dose: 7.2 mg/kg/injection, schedule: Q03HX032 (ip), vehicle: saline with Tween-80 91 % of control | dose: 50.0 mg/kg/injection, schedule: Q01DX001 (ip), vehicle: saline 100 % of control | [18] 117 % of control | [13] 112 % of control | [14] 118 % of control | [15] 112 % of control

C=CCSc1cccc(Cl)c1
inactive: [13] 101 % of control | [14] 96 % of control
